What was measured:
c-Met = target: T1, c-Met (Homo sapiens, UniProt P08581); test: c-Met cell-based assay (phospho-c-Met ELISA, A549 cells); conditions: compound at 100 nM
T1 construct: endogenous in cells; host or cells: A549 cells
Outline: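 Serum-starved A549 cells (NSCLC) pretreated 2 h with compound (0.5 nM to 500 nM), then stimulated 20 min with 20% FBS. Lysates analysed by ELISA for phospho-c-Met and total c-Met with streptavidin-HRP chemiluminescence.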

[1] = tested on: MDA-MB-231 human breast cancer cells; test: In vivo anti-tumor efficacy, MDA-MB-231 xenograft; conditions: Breast cancer MDA-MB-231, nu/nu Balb/c mice
Protocol: (§1) Female (nu/nu) Balb/c athymic mice at 4-6 weeks of age were injected subcutaneously (s.c.) with MDA-MB-231 human breast cancer cells, A549 human non-small cell lung cancer cells, U87-MG human glioblastoma cells, PC-3 human prostate cancer cells, HT-29 human colon cancer, BEL-7404 human hepatocellular carcinoma, or MKN-45 human gastric cancer cells (ATCC, 5×10^6 cells suspended in 100 μl DMEM medium). Treatment was initiated after the tumor mass grown from s.c. implanted tumor cells reached a median volume of 200-400 mm^3. Mice were randomized into groups with three in each group for small-sample efficacy tests such that the median tumor volume is nearly equal among all groups. For large-sample efficacy tests, mice were randomized into groups with thirteen or fourteen in each group. Each group was treated either with compounds (dissolved in 2:1 mixture of PEG400 and 0.01N HCl (v/v)) or without compounds (vehicle only, 2:1 mixture of PEG400 and 0.01N HCl (v/v)) once per day at dose 12.5, 25, 50 or 100 mg/kg by oral gavage. Tumor volumes were assessed at least twice weekly by caliper measurement from the start of treatment. Tumor volume was calculated using the formula ½×L×W^2 (L: length of tumor's long axis, W: length of tumor's short axis). Treatment was applied for at least two weeks or until the tumor volume reaches a size of ˜2500 mm^3 or greater. Mice were humanly sacrificed after the experiment.
The efficacy of compounds in reducing tumor growth was assessed by the index Tumor Growth Inhibition (TGI). TGI for a given treatment period was calculated using the group mean tumor volumes according to the formula: TGI=100×(VVehicle—group−VTreatment—group)÷VVehicle—group wherein VVehicle—group represents the mean tumor volume for the group treated with vehicle and VTreatment—group represents the mean tumor volume of the group treated with a compound.

[2] = tested on: A549 human non-small cell lung cancer cells; test: In vivo anti-tumor efficacy, A549 xenograft; conditions: Non-small cell lung cancer A549, nu/nu Balb/c mice, 50 mg/kg oral once per day, n = 2 × 3
Protocol: as §1, with “experiment. The efficacy of compounds in reducing tumor growth was assessed by the index Tumor Growth Inhibition (TGI). TGI for a given treatment period was calculated using the group mean tumor volumes according to the formula: TGI=100×(VVehicle—group−VTreatment—group)÷VVehicle—group wherein VVehicle—group represents the mean tumor volume for the group treated with vehicle and VTreatment—group represents the mean tumor volume of the group treated with a compound.” for “experiment.”

[3] = tested on: PC-3 human prostate cancer cells; test: In vivo anti-tumor efficacy, PC-3 xenograft; conditions: Prostate cancer PC-3, nu/nu Balb/c mice, 50 mg/kg oral once per day, n = 2 × 3
Protocol: as §1, with “experiment. The efficacy of compounds in reducing tumor growth was assessed by the index Tumor Growth Inhibition (TGI). TGI for a given treatment period was calculated using the group mean tumor volumes according to the formula: TGI=100×(VVehicle—group−VTreatment—group)÷VVehicle—group wherein VVehicle—group represents the mean tumor volume for the group treated with vehicle and VTreatment—group represents the mean tumor volume of the group treated with a compound.” for “experiment.”

[4] = 50 mg/kg oral once per day, n = 2 × 3

T1 sequence (P08581 25-1390): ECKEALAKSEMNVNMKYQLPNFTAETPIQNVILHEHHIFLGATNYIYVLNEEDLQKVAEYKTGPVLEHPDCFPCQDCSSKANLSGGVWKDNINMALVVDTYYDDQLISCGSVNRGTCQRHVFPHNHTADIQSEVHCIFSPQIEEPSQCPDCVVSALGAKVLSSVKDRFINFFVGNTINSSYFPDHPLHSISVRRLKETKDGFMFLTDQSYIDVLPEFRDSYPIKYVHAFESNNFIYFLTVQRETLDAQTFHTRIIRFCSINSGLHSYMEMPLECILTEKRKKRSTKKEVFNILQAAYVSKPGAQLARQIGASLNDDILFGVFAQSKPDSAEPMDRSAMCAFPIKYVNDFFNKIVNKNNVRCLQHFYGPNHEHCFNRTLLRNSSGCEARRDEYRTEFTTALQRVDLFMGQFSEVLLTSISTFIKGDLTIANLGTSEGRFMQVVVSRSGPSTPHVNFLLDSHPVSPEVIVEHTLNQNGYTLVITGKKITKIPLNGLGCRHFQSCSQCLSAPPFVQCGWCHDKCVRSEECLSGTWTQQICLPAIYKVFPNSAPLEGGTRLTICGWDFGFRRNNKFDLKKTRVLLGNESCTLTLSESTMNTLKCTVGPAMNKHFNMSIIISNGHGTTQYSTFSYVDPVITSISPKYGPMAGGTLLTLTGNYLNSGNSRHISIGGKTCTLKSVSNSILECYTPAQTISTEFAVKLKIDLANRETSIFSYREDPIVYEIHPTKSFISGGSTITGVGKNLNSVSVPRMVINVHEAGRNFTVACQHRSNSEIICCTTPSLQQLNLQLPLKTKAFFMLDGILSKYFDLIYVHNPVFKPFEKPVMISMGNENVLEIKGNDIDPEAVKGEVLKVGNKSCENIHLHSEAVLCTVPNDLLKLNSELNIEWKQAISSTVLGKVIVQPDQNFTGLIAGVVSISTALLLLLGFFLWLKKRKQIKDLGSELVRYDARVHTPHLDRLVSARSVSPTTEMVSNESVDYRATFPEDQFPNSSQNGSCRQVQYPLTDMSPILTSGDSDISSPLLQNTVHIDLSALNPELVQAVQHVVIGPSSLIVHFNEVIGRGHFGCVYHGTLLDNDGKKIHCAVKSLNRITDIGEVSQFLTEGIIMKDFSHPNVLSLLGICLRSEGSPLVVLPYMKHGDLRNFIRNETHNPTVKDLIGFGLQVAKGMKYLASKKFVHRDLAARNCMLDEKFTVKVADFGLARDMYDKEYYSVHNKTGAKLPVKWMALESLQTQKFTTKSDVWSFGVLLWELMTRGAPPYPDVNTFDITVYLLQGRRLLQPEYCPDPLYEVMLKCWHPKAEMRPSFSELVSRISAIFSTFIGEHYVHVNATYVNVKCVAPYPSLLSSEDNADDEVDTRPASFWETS

| Compound | % c-Met kinase activity remains (c-Met) | Tumor Growth Inhibition (TGI) [1, 4] | Tumor Growth Inhibition (TGI) [2] | Tumor Growth Inhibition (TGI) [3] | Tumor Growth Inhibition (TGI) ([1]; 12.5 mg/kg oral once per day, n = 6 × 14) | Tumor Growth Inhibition (TGI) ([1]; 25 mg/kg oral once per day, n = 6 × 14) | Tumor Growth Inhibition (TGI) ([1]; 50 mg/kg oral once per day, n = 6 × 14) | Tumor Growth Inhibition (TGI) ([1]; 100 mg/kg oral once per day, n = 6 × 14) |
| --- | --- | --- | --- | --- | --- | --- | --- | --- |
| Cl.O=C(Nc1cccc(C(F)(F)F)c1)Nc1cccc2c1ccn2Cc1ccnc2[nH]ccc12 [Example 51, 1-(3-Trifluoromethylphenyl)-3-[1-(1H-pyrrolo[2,3-b]pyridin-4-ylmethyl)-1H-indol-4-yl]urea hydrochloride] | B (the percentage is greater or equal to 70%) | A (the TGI is greater or equal to 50%) | A (the TGI is greater or equal to 50%) | A (the TGI is greater or equal to 50%) | – | – | – | – |
| Cl.O=C(Nc1cc(Cl)ccc1F)Nc1cccc2c1ccn2Cc1ccnc2[nH]ccc12 [Example 56, 1-(2-Fluoro-5-chlorophenyl)-3-[1-(1H-pyrrolo[2,3-b]pyridin-4-ylmethyl)-1H-indol-4-yl]urea hydrochloride] | A (the percentage of kinase activity remains is below 70%) | A (the TGI is greater or equal to 50%) | A (the TGI is greater or equal to 50%) | A (the TGI is greater or equal to 50%) | A (the TGI is greater or equal to 50%) | A (the TGI is greater or equal to 50%) | A (the TGI is greater or equal to 50%) | A (the TGI is greater or equal to 50%) |
